From the supplement of paper PMC10307832

What was measured:
Assay in all cases: relative viability (nuclei count vs DMSO), 5 days (fraction); higher = more cells survive
[1] = compound: CC[C@H](Nc1ncnc2[nH]cnc12)c1nc2cccc(F)c2c(=O)n1-c1ccccc1 [Idelalisib] + NC(=O)Nc1cc(-c2cccc(F)c2)sc1C(=O)N[C@H]1CCCNC1 [AZD7762] (partner 0.2 µM)
Summary of the method: (§1)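 A single step with final 0.05% Triton X-100, 1% formaldehyde and 1 ug/ml Hoechst fixed the cells and stained nuclei 5 days after treatment. Lung cancer cell lines in 1536-well plates had been treated by pin tool the day after seeding with one drug alone or a fixed anchor-drug dose plus five library-drug doses (not always all listed) in √10 steps, and nuclei were counted on 4× images. Relative viability is the ratio of nuclei in treated wells to nuclei in vehicle wells, taken as the median of duplicate plates.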

[2] = compound: Nc1nc2[nH]cc(CCc3ccc(C(=O)N[C@@H](CCC(=O)O)C(=O)O)cc3)c2c(=O)[nH]1 [Pemetrexed] + NC(=O)Nc1cc(-c2cccc(F)c2)sc1C(=O)N[C@H]1CCCNC1 [AZD7762] (partner 0.2 µM)
Summary of the method: as §1

[3] = compound: CC[C@H](Nc1ncnc2[nH]cnc12)c1nc2cccc(F)c2c(=O)n1-c1ccccc1 [Idelalisib] + CCNC(=O)c1noc(-c2cc(C(C)C)c(O)cc2O)c1-c1ccc(CN2CCOCC2)cc1 [Luminespib] (partner 0.01 µM)
Summary of the method: as §1

[4] = compound: CC[C@H](Nc1ncnc2[nH]cnc12)c1nc2cccc(F)c2c(=O)n1-c1ccccc1 [Idelalisib] + CC(=O)c1c(C)c2cnc(Nc3ccc(N4CCNCC4)cn3)nc2n(C2CCCC2)c1=O [Palbociclib] (partner 0.5 µM)
Summary of the method: as §1

Row | Cell Line | relative viability ([1]; first compound 0.04 µM) | relative viability ([1]; first compound 0.1265 µM) | relative viability ([1]; first compound 0.4 µM) | relative viability ([1]; first compound 1.265 µM) | relative viability ([1]; first compound 4 µM) | relative viability ([2]; first compound 0.002 µM) | relative viability ([2]; first compound 0.006325 µM) | relative viability ([2]; first compound 0.02 µM) | relative viability ([2]; first compound 0.06325 µM) | relative viability ([2]; first compound 0.2 µM) | relative viability ([3]; first compound 0.04 µM) | relative viability ([3]; first compound 0.1265 µM) | relative viability ([3]; first compound 0.4 µM) | relative viability ([3]; first compound 1.265 µM) | relative viability ([3]; first compound 4 µM) | relative viability ([4]; first compound 0.04 µM) | relative viability ([4]; first compound 0.1265 µM) | relative viability ([4]; first compound 0.4 µM) | relative viability ([4]; first compound 1.265 µM) | relative viability ([4]; first compound 4 µM)
1 | HOP-62 | 0.731 | 0.706 | 0.398 | 0.304 | 0.545 | 0.485 | 0.534 | 0.45 | 0.762 | 0.483 | 1.03 | 0.875 | 0.83 | 1.08 | 0.926 | 0.441 | 0.468 | 0.411 | 0.468 | 0.328
2 | LC-2-ad | 0.826 | 0.86 | 0.734 | 0.782 | 0.632 | 0.726 | 0.816 | 0.43 | 0.276 | 0.233 | 1.17 | 1.06 | 0.886 | 1.14 | 0.957 | 0.454 | 0.518 | 0.513 | 0.503 | 0.49
3 | LCLC-97TM1 | 0.199 | 0.382 | 0.274 | 0.107 | 0.339 | 0.338 | 0.164 | 0.273 | 0.243 | 0.127 | 0.82 | 0.738 | 0.708 | 0.818 | 0.607 | 0.247 | 0.248 | 0.179 | 0.239 | 0.158
4 | LCLC-103H | 0.757 | 0.809 | 0.724 | 0.786 | 0.652 | 0.642 | 0.774 | 0.792 | 0.775 | 0.695 | 0.998 | 0.731 | 0.757 | 0.933 | 0.794 | 0.515 | 0.421 | 0.472 | 0.472 | 0.451
5 | LK-2 | 0.637 | 0.395 | – | 0.27 | 0.371 | 0.504 | 0.426 | 0.494 | 0.245 | 0.164 | 0.177 | 0.142 | – | 0.196 | 0.178 | 0.603 | 0.832 | – | 0.609 | 0.659
6 | LOU-NH91 | 0.833 | 0.807 | 0.686 | 0.638 | 0.673 | 0.678 | 0.738 | 0.715 | 0.44 | 0.394 | 0.281 | 0.321 | 0.327 | 0.33 | 0.315 | 0.548 | 0.545 | 0.629 | 0.544 | 0.547
7 | LU99A | 0.335 | 0.422 | 0.294 | 0.209 | 0.425 | 0.356 | 0.376 | 0.371 | 0.293 | 0.178 | 0.217 | 0.274 | 0.238 | 0.285 | 0.243 | 0.41 | 0.424 | 0.357 | 0.429 | 0.39
8 | LXF-289 | 1.16 | 1.09 | 1.15 | 0.838 | 1.16 | 1.06 | 1.02 | 1.14 | 1.09 | 1.02 | 0.776 | 0.575 | 0.663 | 0.815 | 0.439 | 0.592 | 0.667 | 0.601 | 0.687 | 0.627
9 | NCI-H23 | 0.265 | 0.218 | 0.247 | 0.195 | 0.235 | 0.253 | 0.231 | 0.232 | 0.235 | 0.245 | 0.219 | 0.221 | – | – | 0.196 | 0.51 | 0.467 | 0.441 | 0.501 | 0.521
10 | NCI-H520 | – | – | – | – | – | – | – | – | – | – | 0.197 | 0.251 | 0.222 | 0.217 | 0.192 | 0.24 | 0.184 | 0.193 | 0.185 | 0.156
11 | NCI-H596 | 1.02 | 1.11 | 1.24 | 0.853 | 0.912 | 1.17 | 1.1 | 1.07 | 0.472 | 0.362 | 1.13 | 0.925 | 0.827 | 0.905 | 0.847 | – | – | – | – | –
12 | NCI-H661 | – | – | – | – | – | – | – | – | – | – | 0.985 | 0.907 | 0.85 | 0.987 | 1.04 | 0.417 | 0.425 | 0.398 | 0.459 | 0.421
13 | NCI-H1563 | – | – | – | – | – | – | – | – | – | – | 0.562 | 0.543 | 0.557 | 0.519 | 0.5 | – | – | – | – | –
14 | NCI-H1623 | – | – | – | – | – | – | – | – | – | – | 0.461 | 0.494 | 0.394 | 0.381 | 0.516 | – | – | – | – | –
15 | NCI-H1648 | 0.652 | 0.638 | 0.866 | 0.6 | 0.504 | 0.671 | 0.703 | 0.831 | 0.686 | 0.623 | – | – | – | – | – | 0.239 | 0.291 | 0.298 | 0.262 | 0.315
16 | NCI-H1650 | – | – | – | – | – | – | – | – | – | – | 0.18 | 0.191 | 0.198 | 0.219 | 0.185 | 0.361 | 0.338 | 0.297 | 0.324 | 0.291
17 | NCI-H1703 | – | 0.124 | – | 0.0966 | 0.126 | 0.127 | 0.133 | 0.127 | 0.12 | 0.146 | – | – | – | – | – | – | – | – | – | –
18 | NCI-H2009 | – | – | – | – | – | – | – | – | – | – | 1.01 | 1.04 | 1.02 | 1.11 | 1.03 | 0.259 | 0.224 | 0.176 | 0.202 | 0.13
19 | NCI-H2023 | – | – | – | – | – | – | – | – | – | – | 0.644 | 0.784 | 0.79 | 0.87 | 0.67 | 0.368 | 0.492 | 0.295 | 0.295 | 0.295
20 | NCI-H2228 | – | – | – | – | – | – | – | – | – | – | 0.0989 | 0.17 | 0.16 | 0.175 | 0.133 | 0.633 | 0.846 | 0.737 | 0.958 | 0.743
21 | SK-LU-1 | – | – | – | – | – | – | – | – | – | – | 0.225 | 0.189 | 0.185 | 0.188 | 0.205 | 0.424 | 0.408 | 0.504 | 0.375 | 0.348
22 | SK-MES-1 | – | – | – | – | – | – | – | – | – | – | 0.847 | 0.689 | 0.591 | 0.546 | 0.542 | 0.296 | 0.311 | 0.299 | 0.315 | 0.288
23 | SW 1573 | – | – | – | – | – | – | – | – | – | – | 0.275 | 0.171 | 0.219 | 0.17 | 0.365 | 0.436 | 0.376 | 0.346 | 0.372 | 0.255
